Test results: PubChem BioAssay (NCI)
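Cells were grown in 96-well plates and exposed to each compound for 48 hours at five concentrations; endpoints were interpolated linearly between bracketing concentrations, or set to the highest concentration if not reached. TGI: concentration producing complete growth inhibition.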

Legend:
Assay in all cases: growth of human tumour cells (NCI), 48 h
[1] = tested on: EKVX NSCLC
[2] = tested on: HCC-2998 colon
[3] = tested on: HOP-62 NSCLC
[4] = tested on: SF-295 CNS
[5] = tested on: ACHN renal
[6] = tested on: SW-620 colon
[7] = tested on: OVCAR-8 ovarian
[8] = tested on: HOP-18 NSCLC
[9] = tested on: UACC-257 melanoma
[10] = tested on: DMS 273 small cell lung
[11] = tested on: SNB-78 CNS
[12] = tested on: HCT-15 colon
[13] = tested on: OVCAR-3 ovarian
[14] = tested on: UACC-62 melanoma
[15] = tested on: RXF 393 renal
[16] = tested on: COLO 205 colon
[17] = tested on: SK-OV-3 ovarian
[18] = tested on: MALME-3M melanoma
[19] = tested on: OVCAR-5 ovarian
[20] = tested on: UO-31 renal
[21] = tested on: M19-MEL melanoma
[22] = tested on: NCI-H23 lung
[23] = tested on: MOLT-4 leukemia
[24] = tested on: SK-MEL-5 melanoma
[25] = tested on: SK-MEL-2 melanoma
[26] = tested on: U251 CNS
[27] = tested on: SNB-75 CNS
[28] = tested on: K-562 leukemia
[29] = tested on: LXFL 529 NSCLC
[30] = tested on: RXF-631 renal
[31] = tested on: OVCAR-4 ovarian
[32] = tested on: M14 melanoma
[33] = tested on: CCRF-CEM leukemia
[34] = tested on: SF-539 CNS
[35] = tested on: KM20L2 colon
[36] = tested on: NCI-H460 lung
[37] = tested on: SK-MEL-28 melanoma
[38] = tested on: A549 NSCLC
[39] = tested on: HT29 colon
[40] = tested on: TK-10 renal
[41] = tested on: SF-268 CNS
[42] = tested on: SN12C renal
[43] = tested on: DLD-1 colon
[44] = tested on: HCT-116 colon
[45] = tested on: SNB-19 CNS
[46] = tested on: KM12 colon
[47] = tested on: 786-0 renal
[48] = tested on: NCI-H522 lung
[49] = tested on: A498 renal
[50] = tested on: DMS 114 small cell lung
[51] = tested on: CAKI-1 renal
[52] = tested on: XF 498 CNS
[53] = tested on: LOX IMVI melanoma
[54] = tested on: IGROV1 ovarian
[55] = tested on: NCI-H226 lung
[56] = tested on: HL-60(TB) leukemia
[57] = tested on: SR leukemia
[58] = tested on: HOP-92 NSCLC
[59] = tested on: RPMI-8226 leukemia

Measured: TGI

NC(CCC(=O)NC(CSSCCCCS(=O)O)C(=O)NCC(=O)O)C(=O)O (stereo not given)
not listed: [55] | [56] | [57] | [58] | [59]
> 100 µM: all other assays above

COC(=O)CN1CCSC1=NC#N
> 100 µM: [1] | [3] | [10] | [11] | [14] | [15] | [17] | [19] | [20] | [22] | [23] | [55] | [26] | [28] | [56] | [32] | [57] | [33] | [58] | [36] | [37] | [38] | [39] | [40] | [41] | [45] | [46] | [48] | [49] | [54]

O=[N+]([O-])c1ccc(-c2ccc(-c3csc(Nc4ccccn4)n3)o2)cc1
76.8 µM: [29]
28.5 µM: [26]
49.9 µM: [52]
56.1 µM: [40]
50 µM: [31]
77.4 µM: [45]
62.4 µM: [3]
not listed: [1] | [8] | [15] | [22] | [24] | [33] | [34] | [36] | [38] | [47] | [49] | [50] | [55]
> 100 µM: all other assays above
